Reference: US20060115804A1, “Method of studying living cells” (priority 2002, published 2006)

Test system: Primary human osteoblasts
Test: Formation and mineralisation of bone nodules (962 cm^-1 hydroxyapatite Raman peak) by osteoblasts cultured on 45S5 Bioglass
Format: cell-based
Details: culture medium supplemented with BGP; cells on 45S5 Bioglass substrates
Experimental: Primary human osteoblasts were cultured on 45S5 Bioglass® substrates in order to induce formation of new bone. The formation of new bone can be detected with high sensitivity using Raman spectroscopy with 785 nm lasers by detecting the 962 cm^−1 Raman peak of hydroxyapatite (the mineral phase of bone). […] Only peaks corresponding to intrinsic cellular components were measured.

O=P(O)(O)OC(CO)CO [beta-glycerophosphate (BGP), beta-glycerophosphate]
Hydroxyapatite Raman peak (formation of bone nodules): a strong peak corresponding to hydroxyapatite was detected
